Results reported in patent US20250382305A1 (PTC THERAPEUTICS, INC., priority 2022, published 2025).

Columns and labels:
[1] = system: Total ATXN3 (tATXN3) protein; assay: Endogenous Total ATXN3 (tATXN3) Protein Assay (MSD immunoassay of cell lysates); assay type: cell-based; conditions: average IC50, total ATXN3 protein in cell lysate after 48 h with compound (Table 1)
How it was run: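 By electrochemiluminescent MSD sandwich immunoassay (mouse monoclonal capture, rabbit monoclonal and SULFO-TAG anti-rabbit detection), endogenous ATXN3 was quantified in lysates of cells treated 48 h at 37° C at 10,000 cells/well. Treatment used a 7-point 3.16-fold duplicate dilution series, with average IC50 grouped into star categories.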

[2] = system: ATXN3 pre-mRNA; assay: RT-qPCR Assay to Quantify Exon 4 Skipping in ATXN3 pre-mRNA in Cells; assay type: cell-based; conditions: percent exon 4 skipping in ATXN3 pre-mRNA, RT-qPCR of cell lysates; average IC50
How it was run: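 IC50 derives from a dose-response fit of percent exon 4 skipping, quantified by RT-qPCR on crude lysates. Compounds tested as 7-point 3.16-fold dilutions in duplicate; cells (10,000/well) were exposed for 24 h at 37 °C before lysis.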

Structure (SMILES): N[C@@H]1CCCC(F)(F)[C@H]1c1sc2c(NCc3ccco3)nc(Cl)nc2c1Br [Compound 412, 6-((1S,6R)-6-amino-2,2-difluorocyclohexyl)-7-bromo-2-chloro-N-(furan-2-ylmethyl)thieno[3,2-d]pyrimidin-4-amine]
- IC50 [1]: 300 to 1000 nM
- IC50 [2]: 300 to 1000 nM

Structure (SMILES): Cc1c([C@@H]2CC=CC[C@H]2N)sc2c(NCc3ccco3)nc(Cl)nc12 [Compound 413, 6-((1R,6R)-6-aminocyclohex-3-en-1-yl)-2-chloro-N-(furan-2-ylmethyl)-7-methylthieno[3,2-d]pyrimidin-4-amine]
- IC50 [1]: 30 to 300 nM
- IC50 [2]: 30 to 300 nM

Structure (SMILES): N[C@@H]1CC=CC[C@H]1c1sc2c(NCc3ccccc3)nc(Cl)nc2c1I [Compound 414, 6-((1R,6R)-6-aminocyclohex-3-en-1-yl)-N-benzyl-2-chloro-7-iodothieno[3,2-d]pyrimidin-4-amine]
- IC50 [1]: 300 to 1000 nM
- IC50 [2]: 30 to 300 nM

Structure (SMILES): N[C@@H]1CC=CC[C@H]1c1sc2c(NCc3ccsc3)cc(Cl)nc2c1Br [Compound 415, 2-((1R,6R)-6-aminocyclohex-3-en-1-yl)-3-bromo-5-chloro-N-(thiophen-3-ylmethyl)thieno[3,2-b]pyridin-7-amine]
- IC50 [1]: 300 to 1000 nM
- IC50 [2]: 300 to 1000 nM

Structure (SMILES): N[C@@H]1CCCO[C@H]1c1c(I)c2nc(Cl)nc(NCc3cccs3)c2n1C(F)F [Compound 416, 6-((2R,3R)-3-aminotetrahydro-2H-pyran-2-yl)-2-chloro-5-(difluoromethyl)-7-iodo-N-(thiophen-2-ylmethyl)-5H-pyrrolo[3,2-d]pyrimidin-4-amine]
- IC50 [1]: 30 to 300 nM
- IC50 [2]: 30 to 300 nM

Structure (SMILES): N[C@@H]1CC=CC[C@H]1c1c(Cl)c2nc(Cl)cc(NCc3ccccc3)c2n1C(F)F [Compound 417, 2-((1R,6R)-6-aminocyclohex-3-en-1-yl)-N-benzyl-3,5-dichloro-1-(difluoromethyl)-1H-pyrrolo[3,2-b]pyridin-7-amine]
- IC50 [1]: ≤ 30 nM
- IC50 [2]: ≤ 30 nM

Structure (SMILES): Cc1c([C@@H]2CC=CC[C@H]2N)sc2c(NCc3ccsc3)cc(Cl)nc12 [Compound 419, 2-((1R,6R)-6-aminocyclohex-3-en-1-yl)-5-chloro-3-methyl-N-(thiophen-3-ylmethyl)thieno[3,2-b]pyridin-7-amine]
- IC50 [1]: 30 to 300 nM
- IC50 [2]: 30 to 300 nM

Structure (SMILES): N[C@H]1CC=CC[C@@H]1c1c(Cl)c2nc(Cl)cc(NCc3ccccc3)c2n1C(F)F [Compound 420, 2-((1S,6S)-6-aminocyclohex-3-en-1-yl)-N-benzyl-3,5-dichloro-1-(difluoromethyl)-1H-pyrrolo[3,2-b]pyridin-7-amine]
- IC50 [1]: 30 to 300 nM
- IC50 [2]: 30 to 300 nM

Structure (SMILES): N[C@@H]1CCCO[C@H]1c1c(I)c2nc(Cl)nc(NCc3ccco3)c2n1C(F)F [Compound 422, 6-((2R,3R)-3-aminotetrahydro-2H-pyran-2-yl)-2-chloro-5-(difluoromethyl)-N-(furan-2-ylmethyl)-7-iodo-5H-pyrrolo[3,2-d]pyrimidin-4-amine]
- IC50 [1]: 30 to 300 nM
- IC50 [2]: 30 to 300 nM

Structure (SMILES): N[C@@H]1CCCO[C@H]1c1c(Cl)c2nc(Cl)nc(NCc3cccs3)c2n1C(F)F [Compound 423, 6-((2R,3R)-3-aminotetrahydro-2H-pyran-2-yl)-2,7-dichloro-5-(difluoromethyl)-N-(thiophen-2-ylmethyl)-5H-pyrrolo[3,2-d]pyrimidin-4-amine]
- IC50 [1]: 30 to 300 nM
- IC50 [2]: ≤ 30 nM

Structure (SMILES): N[C@@H]1CC=CC[C@H]1c1c(I)c2nc(Cl)nc(NCc3ccccc3)c2n1C(F)F [Compound 424, 6-((1R,6R)-6-aminocyclohex-3-en-1-yl)-N-benzyl-2-chloro-5-(difluoromethyl)-7-iodo-5H-pyrrolo[3,2-d]pyrimidin-4-amine]
- IC50 [1]: 30 to 300 nM
- IC50 [2]: ≤ 30 nM

Structure (SMILES): N[C@@H]1CCCO[C@H]1c1c(Br)c2nc(Cl)cc(NCc3ccco3)c2n1C(F)F [Compound 426, 2-((2R,3R)-3-aminotetrahydro-2H-pyran-2-yl)-3-bromo-5-chloro-1-(difluoromethyl)-N-(furan-2-ylmethyl)-1H-pyrrolo[3,2-b]pyridin-7-amine]
- IC50 [1]: 300 to 1000 nM
- IC50 [2]: 30 to 300 nM

Structure (SMILES): N[C@@H]1CC=CC[C@H]1c1c(I)c2nc(Cl)cc(NCc3cccs3)c2n1C(F)F [Compound 427, 2-((1R,6R)-6-aminocyclohex-3-en-1-yl)-5-chloro-1-(difluoromethyl)-3-iodo-N-(thiophen-2-ylmethyl)-1H-pyrrolo[3,2-b]pyridin-7-amine]
- IC50 [1]: 30 to 300 nM
- IC50 [2]: ≤ 30 nM

Structure (SMILES): CC#CCNc1cc(Cl)nc2c(Br)c([C@@H]3CCCC[C@H]3N)sc12 [Compound 428, 2-((1R,2R)-2-aminocyclohexyl)-3-bromo-N-(but-2-yn-1-yl)-5-chlorothieno[3,2-b]pyridin-7-amine]
- IC50 [1]: 300 to 1000 nM
- IC50 [2]: 300 to 1000 nM

Structure (SMILES): CC#CCNc1cc(Cl)nc2c(Br)c([C@@H]3CC=CC[C@H]3N)sc12 [Compound 429, 2-((1R,6R)-6-aminocyclohex-3-en-1-yl)-3-bromo-N-(but-2-yn-1-yl)-5-chlorothieno[3,2-b]pyridin-7-amine]
- IC50 [1]: ≤ 30 nM
- IC50 [2]: ≤ 30 nM

Structure (SMILES): C#Cc1c([C@@H]2CCCC[C@H]2N)sc2c(NCc3ccccc3F)cc(Cl)nc12 [Compound 430, 2-((1R,2R)-2-aminocyclohexyl)-5-chloro-3-ethynyl-N-(2-fluorobenzyl)thieno[3,2-b]pyridin-7-amine]
- IC50 [1]: 30 to 300 nM
- IC50 [2]: 30 to 300 nM

Structure (SMILES): N[C@@H]1CCCC[C@H]1c1sc2c(NCc3ccncc3)cc(Cl)nc2c1Br [Compound 432, 2-((1R,2R)-2-aminocyclohexyl)-3-bromo-5-chloro-N-(pyridin-4-ylmethyl)thieno[3,2-b]pyridin-7-amine]
- IC50 [1]: 30 to 300 nM
- IC50 [2]: 30 to 300 nM

Structure (SMILES): N[C@@H]1CC=CC[C@H]1c1sc2c(NCc3ccncc3)cc(Cl)nc2c1Cl [Compound 433, 2-((1R,6R)-6-aminocyclohex-3-en-1-yl)-3,5-dichloro-N-(pyridin-4-ylmethyl)thieno[3,2-b]pyridin-7-amine]
- IC50 [1]: 30 to 300 nM
- IC50 [2]: 30 to 300 nM

Structure (SMILES): N[C@@H]1CC=CC[C@H]1c1sc2c(NCc3ccccc3)nc(Cl)nc2c1Br [Compound 434, 6-((1R,6R)-6-aminocyclohex-3-en-1-yl)-N-benzyl-7-bromo-2-chlorothieno[3,2-d]pyrimidin-4-amine]
- IC50 [1]: 30 to 300 nM
- IC50 [2]: 30 to 300 nM

Structure (SMILES): Cc1c([C@@H]2CC=CC[C@H]2N)sc2c(NCc3ccncc3F)nc(Cl)nc12 [Compound 435, 6-((1R,6R)-6-aminocyclohex-3-en-1-yl)-2-chloro-N-((3-fluoropyridin-4-yl)methyl)-7-methylthieno[3,2-d]pyrimidin-4-amine]
- IC50 [1]: 30 to 300 nM
- IC50 [2]: ≤ 30 nM

Structure (SMILES): Cc1c([C@@H]2CC=CC[C@H]2N)sc2c(NCc3ccncc3)nc(Cl)nc12 [Compound 436, 6-((1R,6R)-6-aminocyclohex-3-en-1-yl)-2-chloro-7-methyl-N-(pyridin-4-ylmethyl)thieno[3,2-d]pyrimidin-4-amine]
- IC50 [1]: > 1000 nM
- IC50 [2]: 300 to 1000 nM

Structure (SMILES): N[C@@H]1CC=CC[C@H]1c1sc2c(NCc3ccco3)nc(Cl)nc2c1Cl [Compound 437, 6-((1R,6R)-6-aminocyclohex-3-en-1-yl)-2,7-dichloro-N-(furan-2-ylmethyl)thieno[3,2-d]pyrimidin-4-amine]
- IC50 [1]: ≤ 30 nM
- IC50 [2]: ≤ 30 nM

Structure (SMILES): CC#CCNc1cc(Cl)nc2c(Br)c([C@@H]3CC(C)=C(C)C[C@H]3N)sc12 [Compound 438, 2-((1R,6R)-6-amino-3,4-dimethylcyclohex-3-en-1-yl)-3-bromo-N-(but-2-yn-1-yl)-5-chlorothieno[3,2-b]pyridin-7-amine]
- IC50 [1]: 300 to 1000 nM
- IC50 [2]: 30 to 300 nM

Structure (SMILES): N[C@@H]1CC=CC[C@H]1c1sc2c(NCc3ccncc3F)nc(Cl)nc2c1Cl [Compound 439, 6-((1R,6R)-6-aminocyclohex-3-en-1-yl)-2,7-dichloro-N-((3-fluoropyridin-4-yl)methyl)thieno[3,2-d]pyrimidin-4-amine]
- IC50 [1]: 300 to 1000 nM
- IC50 [2]: 300 to 1000 nM

Structure (SMILES): N[C@@H]1CC=CC[C@H]1c1sc2c(NCc3ccncc3)nc(Cl)nc2c1Cl [Compound 440, 6-((1R,6R)-6-aminocyclohex-3-en-1-yl)-2,7-dichloro-N-(pyridin-4-ylmethyl)thieno[3,2-d]pyrimidin-4-amine]
- IC50 [1]: > 1000 nM
- IC50 [2]: 300 to 1000 nM

Structure (SMILES): Cc1c([C@@H]2CC=CC[C@H]2N)sc2c(NCc3nccs3)nc(Cl)nc12 [Compound 441, 6-((1R,6R)-6-aminocyclohex-3-en-1-yl)-2-chloro-7-methyl-N-(thiazol-2-ylmethyl)thieno[3,2-d]pyrimidin-4-amine]
- IC50 [1]: 30 to 300 nM
- IC50 [2]: 30 to 300 nM

Structure (SMILES): C/C=C\CNc1cc(Cl)nc2c(Cl)c([C@H]3CCCC[C@@H]3N)sc12 [Compound 442, 2-((1S,2S)-2-aminocyclohexyl)-N-((Z)-but-2-en-1-yl)-3,5-dichlorothieno[3,2-b]pyridin-7-amine]
- IC50 [1]: 30 to 300 nM
- IC50 [2]: 30 to 300 nM

Structure (SMILES): N#Cc1cc(NCc2ccco2)c2sc([C@@H]3CC=CC[C@H]3N)c(Cl)c2n1 [Compound 443, 2-((1R,6R)-6-aminocyclohex-3-en-1-yl)-3-chloro-7-((furan-2-ylmethyl)amino)thieno[3,2-b]pyridine-5-carbonitrile]
- IC50 [1]: ≤ 30 nM
- IC50 [2]: ≤ 30 nM

Structure (SMILES): CC1=C(C)C[C@@H](c2sc3c(NCc4ccco4)cc(Cl)nc3c2Cl)[C@H](N)C1 [Compound 444, 2-((1R,6R)-6-amino-3,4-dimethylcyclohex-3-en-1-yl)-3,5-dichloro-N-(furan-2-ylmethyl)thieno[3,2-b]pyridin-7-amine]
- IC50 [1]: > 1000 nM
- IC50 [2]: 300 to 1000 nM

Structure (SMILES): CCOC(=O)C1=CC[C@@H](c2sc3c(NCc4cccs4)cc(Cl)nc3c2C)[C@@H](N)C1 [Compound 445, ethyl (4R,5S)-5-amino-4-(5-chloro-3-methyl-7-((thiophen-2-ylmethyl)amino)thieno[3,2-b]pyridin-2-yl)cyclohex-1-ene-1-carboxylate]
- IC50 [1]: 300 to 1000 nM
- IC50 [2]: 300 to 1000 nM
